Patent US20160120863A1, “SLC2A TRANSPORTER INHIBITORS” (IOMET PHARMA LTD., priority 2013, published 2016)

Biological target: T1, human GLUT1 (Homo sapiens, UniProt P11166)
T1 construct: expressed in transfected cells
T1 sequence (P11166 1-492): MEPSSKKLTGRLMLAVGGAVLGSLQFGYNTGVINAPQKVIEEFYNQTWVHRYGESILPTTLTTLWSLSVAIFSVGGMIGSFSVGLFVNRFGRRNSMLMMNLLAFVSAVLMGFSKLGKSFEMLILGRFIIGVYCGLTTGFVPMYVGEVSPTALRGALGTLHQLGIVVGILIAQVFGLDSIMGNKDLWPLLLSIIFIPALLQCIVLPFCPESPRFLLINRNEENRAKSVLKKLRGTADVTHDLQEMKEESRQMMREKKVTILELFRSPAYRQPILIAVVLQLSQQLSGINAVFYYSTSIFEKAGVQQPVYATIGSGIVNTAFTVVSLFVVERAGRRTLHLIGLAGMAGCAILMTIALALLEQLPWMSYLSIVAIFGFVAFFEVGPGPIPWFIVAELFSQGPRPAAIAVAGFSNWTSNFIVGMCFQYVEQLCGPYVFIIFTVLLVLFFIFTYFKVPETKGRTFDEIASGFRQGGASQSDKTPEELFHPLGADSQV
Assay: [3H]-deoxy-D-glucose uptake assay, GLUT1
Assay type: cell-based
Settings: [3H]-deoxy-D-glucose uptake in HEK293 cells stably expressing human GLUT1
Experimental: HEK293 cells were engineered to stably express either human GLUT1, GLUT2, GLUt3 or GLUT4 by transfection with the pReceiver-Lv105 plasmid, containing either hGLUT1, hGLUT2, hGLUT3, or hGLUT4 gene constructs with lipofectamine 2000, hGLUT1- hGLUT2- hGLUT3- or hGLUT4-overexpressing polyclonal populations were isolated under purinomycin selective pressure (1 μg/ml) and maintained in Dulbecco's modified Eagle's medium supplemented with 1 μg/ml purinomycin+10% foetal bovine serum (FBS).
60,000 cells per well were seeded overnight into poly-D-lysine coasted 96-well plates. […] 90 μl of test compounds were added in glucose-free uptake buffer and cells were incubated at 37° C. for 30 min.
Cells were then washed twice with ice-cold PBS and 100 μl of Microscint-20 was added per well. Glucose uptake was quantified with a scintillation counter. The half maximal inhibitory concentration (IC50) (a measure of the effectiveness of the test compound in inhibiting glucose uptake) was determined.

Compound | GLUT1 pIC50
O=C(c1cnccn1)N1CCN(Cc2c(-c3ccc(Cl)cc3)nc3ccc(-c4ccccc4)cn23)CC1 [Compound 181] | +++ (pIC50 ≧ 6.00)
Clc1ccc(-c2nc3ccc(Cl)cn3c2CN2CCOCC2)cc1 [Compound 27] | ++ (pIC50 5.00-5.99)
CC(=O)N1CCN(Cc2c(-c3ccc(Cl)cc3)nc3ccc(-c4ccccc4)cn23)CC1 [Compound 61] | +++ (pIC50 ≧ 6.00)
CC(=O)N1CCN(Cc2c(-c3ccc(Cl)cc3)nc3ccc(C4CC4)cn23)CC1 [Compound 194] | ++ (pIC50 5.00-5.99)
Clc1ccc(-c2nc3ccc(N4CCOCC4)cn3c2CN2CCOCC2)cc1 [Compound 122] | ++ (pIC50 5.00-5.99)
N#Cc1ccccc1-c1ccc2nc(-c3ccc(Cl)cc3)c(CN3CCN(C(=O)c4ccncc4)CC3)n2c1 [Compound 220] | +++ (pIC50 ≧ 6.00)
CN(C)Cc1c(-c2ccc(Cl)cc2)nc2ccc(-c3ccccc3)cn12 [Compound 97] | + (pIC50 4.00-4.99)
NC(=O)c1ccccc1-c1ccc2nc(-c3ccc(Cl)cc3)c(CN3CCOCC3)n2c1 [Compound 94] | + (pIC50 4.00-4.99)
CC(=O)Nc1ccc2nc(-c3ccc(Cl)cc3)c(CN3CCOCC3)n2c1 [Compound 204] | +− (pIC50 < 4.00)
Cc1ccc(-c2cn3cc(-c4ccccc4)ccc3n2)cc1 [Compound 11] | + (pIC50 4.00-4.99)
C=C(C)c1cn2c(CN3CCOCC3)c(-c3ccc(Cl)cc3)nc2cn1 [Compound 216] | +++ (pIC50 ≧ 6.00)
O=C(c1cccnc1)N1CCN(Cc2c(-c3ccc(Cl)cc3)nc3ccc(-c4ccccc4)cn23)CC1 [Compound 145] | +++ (pIC50 ≧ 6.00)
COc1ccc(C(=O)N2CCN(Cc3c(-c4ccc(OC)cc4)nc4ccc(-c5ccccc5)cn34)CC2)cc1 [Compound 36] | +++ (pIC50 ≧ 6.00)
CN(C)C(=O)CNCc1c(-c2ccc(Cl)cc2)nc2ccc(-c3ccccc3)cn12 [Compound 198] | + (pIC50 4.00-4.99)
O=C(C1CCOCC1)N1CCN(Cc2c(-c3ccc(Cl)cc3)nc3ccc(-c4ccccc4)cn23)CC1 [Compound 200] | +++ (pIC50 ≧ 6.00)
Clc1ccc(-c2nc3ccc(-c4nnn[nH]4)cn3c2CN2CCOCC2)cc1 [Compound 180] | +− (pIC50 < 4.00)
O=C(c1ccccc1)N1CCN(Cc2c(-c3ccc(Cl)cc3)nc3ccc(-c4ccccc4)cn23)CC1 [Compound 44] | +++ (pIC50 ≧ 6.00)
COc1cccc(-c2nc3ccc(-c4ccccc4)cn3c2CN2CCN(C(=O)c3cccs3)CC2)c1 [Compound 20] | +++ (pIC50 ≧ 6.00)
Clc1ccccc1-c1nc2ccc(-c3ccccc3)cn2c1CN1CCOCC1 [Compound 105] | ++ (pIC50 5.00-5.99)
O=C(c1ccccc1F)N1CCN(Cc2c(-c3ccc(Cl)cc3)nc3ccc(-c4ccccc4)cn23)CC1 [Compound 45] | +++ (pIC50 ≧ 6.00)

Compound | GLUT1 pIC50
Clc1cccc(-c2nc3ccc(-c4ccccc4)cn3c2CN2CCOCC2)c1 [Compound 107] | ++ (pIC50 5.00-5.99)
NC(=O)c1ccc(-c2nc3ccc(-c4ccccc4)cn3c2CN2CCOCC2)cc1 [Compound 109] | +− (pIC50 < 4.00)
COCC(=O)N1CCN(Cc2c(-c3ccc(Cl)cc3)nc3ccc(NS(C)(=O)=O)cn23)CC1 [Compound 260] | +++ (pIC50 ≧ 6.00)
COCC(=O)N1CCN(Cc2c(-c3ccc(Cl)cc3)nc3ccc(-c4c(F)cccc4F)cn23)CC1 [Compound 225] | +++ (pIC50 ≧ 6.00)
N#Cc1cccc(-c2ccc3nc(-c4ccc(Cl)cc4)c(CN4CCOCC4)n3c2)c1 [Compound 92] | +− (pIC50 < 4.00)
O=C(c1ccncc1)N1CCN(Cc2c(-c3ccc(Cl)cc3)nc3ccc(-c4ccccc4)cn23)CC1 [Compound 152] | +++ (pIC50 ≧ 6.00)
N#Cc1ccc2nc(-c3ccc(Cl)cc3)c(CN3CCOCC3)n2c1 [Compound 179] | +− (pIC50 < 4.00)
CC1CN(Cc2c(-c3ccccc3)nc3ccccn23)CC(C)O1 (stereo not drawn) [Compound 29] | + (pIC50 4.00-4.99)
O=C(C1CCC1)N1CCN(Cc2c(-c3ccc(Cl)cc3)nc3ccc(-c4ccccc4Cl)cn23)CC1 [Compound 201] | +++ (pIC50 ≧ 6.00)
O=C(c1cscn1)N1CCN(Cc2c(-c3ccc(Cl)cc3)nc3ccc(-c4ccccc4)cn23)CC1 [Compound 159] | +++ (pIC50 ≧ 6.00)
NC(=O)c1ccc(-c2ccc3nc(-c4ccc(Cl)cc4)c(CN4CCOCC4)n3c2)cc1 [Compound 95] | + (pIC50 4.00-4.99)
COc1ccccc1-c1nc2ccc(-c3ccccc3)cn2c1CN1CCOCC1 [Compound 104] | + (pIC50 4.00-4.99)
Cc1cn2c(CN3CCOCC3)c(-c3ccc(Cl)cc3)nc2cn1 [Compound 209] | +− (pIC50 < 4.00)
O=C1CCCN1c1ccc2nc(-c3ccc(Cl)cc3)c(CN3CCOCC3)n2c1 [Compound 162] | + (pIC50 4.00-4.99)
Fc1ccc(-c2nc3ccc(-c4ccccc4)cn3c2CN2CCOCC2)cc1 [Compound 76] | + (pIC50 4.00-4.99)
COc1cccc(C(=O)N2CCN(Cc3c(-c4ccc(Cl)cc4)nc4ccc(-c5ccccc5)cn34)CC2)c1 [Compound 129] | +++ (pIC50 ≧ 6.00)
O=C(C1CCC1)N1CCN(Cc2c(-c3cccc([N+](=O)[O-])c3)nc3ccc(-c4ccccc4)cn23)CC1 [Compound 33] | ++ (pIC50 5.00-5.99)
CC(=O)N1CCN(Cc2c(-c3ccc(Cl)cc3)nc3ccc(-c4c(F)cccc4F)cn23)CC1 [Compound 226] | +++ (pIC50 ≧ 6.00)
CC1CN(Cc2c(-c3ccccc3)nc3ccc(Cl)cn23)CC(C)O1 (stereo not drawn) [Compound 28] | ++ (pIC50 5.00-5.99)
O=C(c1nccs1)N1CCN(Cc2c(-c3ccc(Cl)cc3)nc3ccc(-c4ccccc4)cn23)CC1 [Compound 266] | +++ (pIC50 ≧ 6.00)

Compound | GLUT1 pIC50
Clc1ccc(-c2nc3ccc(-c4cccs4)cn3c2CN2CCOCC2)cc1 [Compound 119] | ++ (pIC50 5.00-5.99)
COCc1c(-c2ccc(Cl)cc2)nc2ccc(-c3ccccc3)cn12 [Compound 73] | + (pIC50 4.00-4.99)
Clc1ccc(-c2nc3ccc(C4=CCCC4)cn3c2CN2CCOCC2)cc1 [Compound 177] | + (pIC50 4.00-4.99)
COCC(=O)N1CCN(Cc2c(-c3ccc(Cl)cc3)nc3ccc([N+](=O)[O-])cn23)CC1 [Compound 275] | ++ (pIC50 5.00-5.99)
COc1cccc(-c2nc3ccc(-c4ccccc4)cn3c2CN2CCN(C(=O)CC(C)C)CC2)c1 [Compound 34] | ++ (pIC50 5.00-5.99)
FC(F)(F)c1nnc2n1CCN(Cc1c(-c3ccc(Cl)cc3)nc3ccc(-c4ccccc4)cn13)C2 [Compound 199] | ++ (pIC50 5.00-5.99)
O=C(c1cn[nH]c1)N1CCN(Cc2c(-c3ccc(Cl)cc3)nc3ccc(-c4ccccc4)cn23)CC1 [Compound 250] | +++ (pIC50 ≧ 6.00)
Clc1ccc(-c2nc3ccc(Oc4ccccc4)cn3c2CN2CCOCC2)cc1 [Compound 158] | + (pIC50 4.00-4.99)
CC(=O)N1CCN(Cc2c(-c3ccc(Cl)cc3)nc3ccc(-c4ncon4)cn23)CC1 [Compound 270] | +++ (pIC50 ≧ 6.00)
COc1cccc(-c2nc3ccc(-c4ccccc4)cn3c2CN2CCN(C(=O)c3ccccc3Cl)CC2)c1 [Compound 39] | + (pIC50 4.00-4.99)
N#Cc1ccc(-c2nc3ccc(-c4ccccc4)cn3c2CN2CCOCC2)cc1 [Compound 106] | +− (pIC50 < 4.00)
Cc1ccc(C(=O)N2CCN(Cc3c(-c4ccc(Cl)cc4)nc4ccc(-c5ccccc5)cn34)CC2)cc1 [Compound 69] | +++ (pIC50 ≧ 6.00)
COc1cccc(-c2nc3ccc(-c4ccccc4Cl)cn3c2CN2CCN(C(=O)C3CCC3)CC2)c1 [Compound 190] | +++ (pIC50 ≧ 6.00)
CC(C)(C)CC(=O)N1CCN(Cc2c(-c3ccc(Cl)cc3)nc3ccc(-c4ccccc4)cn23)CC1 [Compound 46] | ++ (pIC50 5.00-5.99)
CC(=O)N1CCN(Cc2c(-c3ccc(Cl)cc3)nc3cnc(-c4ccccc4)cn23)CC1 [Compound 186] | +++ (pIC50 ≧ 6.00)
Cc1ccc(C(=O)N2CCN(Cc3c(-c4ccc(F)cc4)nc4ccc(-c5ccccc5)cn34)CC2)cc1 [Compound 40] | ++ (pIC50 5.00-5.99)
c1ccc(-c2ccc3nc(-c4ccncc4)c(CN4CCOCC4)n3c2)cc1 [Compound 72] | +− (pIC50 < 4.00)
O=C(c1ccnnc1)N1CCN(Cc2c(-c3ccc(Cl)cc3)nc3ccc(-c4ccccc4)cn23)CC1 [Compound 212] | +++ (pIC50 ≧ 6.00)
O=C(C1CC1)N1CCN(Cc2c(-c3ccc(Cl)cc3)nc3ccc(-c4ccccc4)cn23)CC1 [Compound 133] | +++ (pIC50 ≧ 6.00)
COCC(=O)N1CCN(Cc2c(-c3ccc(Cl)cc3)nc3ccc(-c4ncon4)cn23)CC1 [Compound 284] | +++ (pIC50 ≧ 6.00)
